Test results taken from paper PMC12432858, “Longitudinal imaging of therapeutic enzyme expression after gene therapy for Fabry disease using positron emission tomography and the radiotracer [^18F]AGAL” (Molecular Therapy, 2024).
pKd: −log10 of the molar value.

Target: T1, human α-galactosidase A (GLA; α-Gal A) (Homo sapiens, UniProt P06280)
T1 construct: heart tissue cryosections; no tag stated
T1 sequence (P06280 32-429): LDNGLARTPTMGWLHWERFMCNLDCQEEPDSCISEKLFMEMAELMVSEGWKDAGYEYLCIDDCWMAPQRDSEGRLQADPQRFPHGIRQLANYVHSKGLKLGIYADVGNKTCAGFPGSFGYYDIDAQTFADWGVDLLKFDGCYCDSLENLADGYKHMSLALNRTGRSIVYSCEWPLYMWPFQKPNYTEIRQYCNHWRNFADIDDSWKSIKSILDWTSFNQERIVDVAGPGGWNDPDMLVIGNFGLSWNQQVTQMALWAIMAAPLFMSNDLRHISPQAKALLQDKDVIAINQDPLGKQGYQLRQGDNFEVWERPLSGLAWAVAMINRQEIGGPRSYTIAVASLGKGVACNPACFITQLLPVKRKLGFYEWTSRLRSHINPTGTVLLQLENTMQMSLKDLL
Assay: saturation autoradiography on heart sections, one-site specific binding fit
Settings: pH 5.0 McIlvaine buffer, 23 °C, 60 min; nonspecific binding defined with [19F]AGAL; active site; covalent (proposed); labelled compound; GLA in tissue sections of AAVGLA-treated Gla knockout mice

**Q.** With O=C(CCCCCCCn1cc(CCCF)nn1)N1C2C(O)C(O)C(O)C(CO)C21 (stereo not shown) [[^18F]AGAL] as the molecule, how does the pKd read?
**A.** ~7.70
